What was measured:
RAW264.7 cells = experiment: Cell viability assay (MTT); assay type: cell-based, mouse; settings: 12 h
Method: RAW264.7 cells originated from mouse macrophage cell line were purchased from the American Type Culture Collection. DMEM medium containing 5% fetal bovine serum and 1% Penicillin G Streptomycin was used to culture the cells under 37°C in a humidified atmosphere of 5% CO2.
Then DEME with 20% MTT solution was added, followed by a 37°C incubation for extra 4 h. After the supernatant was removed, DMSO was added to dissolve the insoluble formazan product. The optical density was measured by a microplate reader at 490 nm. In this experiment, the formula used to calculate cell viability was as follows: Cell viability %=ODexperimental group– ODblank group/ODcontrol group– ODblank group×100%

COX-2 [1] = molecular target: T1, COX-2 (Homo sapiens, UniProt P35354); experiment: COX-2 inhibitory activity (COX-2 Inhibitor Screening Kit, fluorescence)
T1 sequence (P35354 18-604): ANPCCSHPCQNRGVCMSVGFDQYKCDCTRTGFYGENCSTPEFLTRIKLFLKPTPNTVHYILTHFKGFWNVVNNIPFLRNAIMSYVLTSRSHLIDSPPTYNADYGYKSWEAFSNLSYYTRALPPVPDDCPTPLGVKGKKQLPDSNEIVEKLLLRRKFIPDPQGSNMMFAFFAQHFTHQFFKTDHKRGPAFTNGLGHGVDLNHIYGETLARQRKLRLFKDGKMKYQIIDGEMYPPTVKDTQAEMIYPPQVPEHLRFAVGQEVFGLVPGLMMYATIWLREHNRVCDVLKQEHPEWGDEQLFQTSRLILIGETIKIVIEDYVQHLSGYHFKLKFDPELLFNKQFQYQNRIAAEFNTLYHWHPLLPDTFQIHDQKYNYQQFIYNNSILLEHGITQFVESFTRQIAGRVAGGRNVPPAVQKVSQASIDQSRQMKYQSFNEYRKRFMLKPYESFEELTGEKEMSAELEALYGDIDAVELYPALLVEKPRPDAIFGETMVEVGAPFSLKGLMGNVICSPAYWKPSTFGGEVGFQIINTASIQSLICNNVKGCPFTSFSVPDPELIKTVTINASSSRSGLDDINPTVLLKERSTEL
Method: In this experiment, the inhibitory effect was determined by using COX-2 Inhibitor Screening Kits. A 96-well black plate was employed, where COX-2 cofactor working solution (5 μL), COX-2 assay buffer (75 μL), test solution (5 μL), and COX-2 working solution (5 uL) were mixed and incubated for 10 min at 37°C in the dark. Then 5 μL of probe solution, together with 5 μL of COX-2 substrate solution, was added immediately. After a 37°C incubation in the dark for another 5 min, the fluorescence value was determined at an excitation wavelength of 560 nm and emission wavelength of 590 nm. […] Besides, COX-2 Assay Buffer was used in the blank control group to replace COX-2 working solution. MC extract or potential inhibitors were dissolved with DMSO as the test solution in the sample groups.
Where, F1, F2, and F3 respectively indicate the fluorescence value of the three groups—100% enzyme activity control group, sample group and blank control group.

COX-2 [2] = molecular target: T1, COX-2; settings: 20 μM, mixture of positive and negative control, affinity ultrafiltration
Method: An experimental group and inactivated enzyme group were set up in this study for comparison. 40 μL of 100 mg/mL MC extract as well as 280 μL of COX-2 (100 U/mL) was transferred to EP tube in the experimental group, in contrast to the control group where 280 μL of inactivated COX-2 (boiled in the water bath for 30 min) was used as the substitute of the activated enzyme. The tubes from both groups were incubated at 37°C in the dark for 40 min, aiming to create an optimal condition under which the potentially suitable ligands would completely combined with the enzyme. A centrifugal filter was employed for ultrafiltration at 15000 × g for 15 min. Afterwards, 300 μL of PBS was added to the samples, and the unbound small molecules were removed by 15000 × g centrifugation for 15 min. […]
UPLC-Q-Exactive-Orbitrap-MS was performed to analyze the compounds in the filtrate using Thermo Scientific Orbitrap Fusion Tribrid Mass Spectrometer (Thermo Fisher Scientific, United States) and Ultimate 3,000 Ultra-performance liquid chromatograph, at the same time with Waters ACQUITY UPLC BEH RP18 (2.1 mm × 100 mm, 1.7 μm) employed for chromatographic analysis. […] The measurements were read at the detection wavelength of 254 nm. […] By comparing peak areas of two groups, specific ligands binding to COX-2 were determined. […]

Structure (SMILES)	Concentration exhibiting no cytotoxicity against RAW264.7 cells (RAW264.7 cells; MTT)	IC50 (COX-2 [1])	Response value (HPLC peak) in active enzyme group compared with inactivated enzyme control group (COX-2 [2])	Concentration exhibiting no cytotoxicity against RAW264.7 cells (RAW264.7 cells; mouse)
O=C(OC[C@H]1O[C@@H](OC(=O)c2cc(O)c(O)c(O)c2)[C@H](OC(=O)c2cc(O)c(O)c(O)c2)[C@@H](OC(=O)c2cc(O)c(O)c(O)c2)[C@@H]1O)c1cc(O)c(O)c(O)c1 [TGG, 1,2,3,6-Tetra-O-galloyl-β-D-glucose]	≤ 20 µM	1.04 µM		
COC(=O)c1cc(O)c(O)c(O)c1 [Methyl gallate]	≤ 10 µM	12.1 µM		
Nc1ncnc2c1ncn2[C@@H]1O[C@H](CO)[C@@H](O)[C@H]1O [adenosine, Adenosine]			no evident change	
O=C(O)c1cc(O)c(O)c(O)c1 [Gallic acid]	≤ 250 µM	1520 µM		
O=C(OC[C@H]1O[C@@H](OC(=O)c2cc(O)c(O)c(O)c2)[C@H](OC(=O)c2cc(O)c(O)c(O)c2)[C@@H](OC(=O)c2cc(O)c(O)c(O)c2)[C@@H]1OC(=O)c1cc(O)c(O)c(O)c1)c1cc(O)c(O)c(O)c1 [PGG, 1,2,3,4,6-Penta-O-galloyl-β-D-glucopyranose]		220 µM		≤ 150 µM
C[C@@]12C[C@@]3(O)O[C@@H](O1)[C@]1(COC(=O)c4ccccc4)[C@H]3C[C@@]12O[C@@H]1O[C@H](COC(=O)c2cc(O)c(O)c(O)c2)[C@@H](O)[C@H](O)[C@H]1O [Galloylpaeoniflorin]	≤ 100 µM	6.68 ± 1.29 µM		

From article PMC10880116, “Identification of potential anti-inflammatory components in Moutan Cortex by bio-affinity ultrafiltration coupled with ultra-performance liquid chromatography mass spectrometry” (Frontiers in Pharmacology, 2024)
